Assay results taken from ChEMBL document CHEMBL3734705, “Synthesis and in vitro cytotoxicity of novel C-12 substituted-14-deoxy-andrographolide derivatives as potent anti-cancer agents” (2015).
Activity calls are given as the source filed them. The calls are words filed in the database; no cut-off is given here.

Tests used:
[1] = Cytotoxicity against human MOLT4 cells assessed as growth level at 10 uM after 48 hrs by SRB assay; assay type: functional, MOLT-4
[2] = Cytotoxicity against human RPMI8226 cells assessed as growth level at 10 uM after 48 hrs by SRB assay; assay type: functional, RPMI-8226
[3] = tested on: EKVX; experiment: Cytotoxicity against human EKVX cells assessed as growth level at 10 uM after 48 hrs by SRB assay; assay type: functional
[4] = Cytotoxicity against human HOP62 cells assessed as growth level at 10 uM after 48 hrs by SRB assay; assay type: functional, HOP-62
[5] = Cytotoxicity against human HOP92 cells assessed as growth level at 10 uM after 48 hrs by SRB assay; assay type: functional, HOP-92
[6] = Cytotoxicity against human HCT116 cells assessed as growth level at 10 uM after 48 hrs by SRB assay; assay type: functional, HCT-116
[7] = tested on: HT-29; experiment: Cytotoxicity against human HT-29 cells assessed as growth level at 10 uM after 48 hrs by SRB assay; assay type: functional
[8] = Cytotoxicity against human SW620 cells assessed as growth level at 10 uM after 48 hrs by SRB assay; assay type: functional, SW-620
[9] = Cytotoxicity against human SF268 cells assessed as growth level at 10 uM after 48 hrs by SRB assay; assay type: functional, SF-268
[10] = Cytotoxicity against human LOXIMVI cells assessed as growth level at 10 uM after 48 hrs by SRB assay; assay type: functional, LOX IMVI
[11] = tested on: Malme-3M; experiment: Cytotoxicity against human MALME-3M cells assessed as growth level at 10 uM after 48 hrs by SRB assay; assay type: functional
[12] = tested on: MDA-MB-435; experiment: Cytotoxicity against human MDA-MB-435 cells assessed as growth level at 10 uM after 48 hrs by SRB assay; assay type: functional
[13] = Cytotoxicity against human UACC62 cells assessed as growth level at 10 uM after 48 hrs by SRB assay; assay type: functional, UACC-62
[14] = Cytotoxicity against human OVCAR4 cells assessed as growth level at 10 uM after 48 hrs by SRB assay; assay type: functional, OVCAR-4
[15] = Cytotoxicity against human NCI-ADR-RES cells assessed as growth level at 10 uM after 48 hrs by SRB assay; assay type: functional
[16] = tested on: A498; experiment: Cytotoxicity against human A498 cells assessed as growth level at 10 uM after 48 hrs by SRB assay; assay type: functional
[17] = Cytotoxicity against human TK10 cells assessed as growth level at 10 uM after 48 hrs by SRB assay; assay type: functional, TK-10
[18] = Cytotoxicity against human Hs578T cells assessed as growth level at 10 uM after 48 hrs by SRB assay; assay type: functional, Hs-578T
[19] = tested on: MDA-MB-468; experiment: Cytotoxicity against human MDA-MB-468 cells assessed as growth level at 10 uM after 48 hrs by SRB assay; assay type: functional
[20] = tested on: CCRF-CEM; experiment: Cytotoxicity against human CCRF-CEM cells assessed as growth inhibition at 10 uM after 48 hrs by SRB assay; assay type: functional; settings: read-out: GI
[21] = Cytotoxicity against human HL-60(TB) cells assessed as growth inhibition at 10 uM after 48 hrs by SRB assay; assay type: functional; settings: HL-60, 48 h, read-out: GI
[22] = tested on: K562; experiment: Cytotoxicity against human K562 cells assessed as growth inhibition at 10 uM after 48 hrs by SRB assay; assay type: functional; settings: K562, 48 h, read-out: GI
[23] = Cytotoxicity against human RPMI8226 cells assessed as growth inhibition at 10 uM after 48 hrs by SRB assay; assay type: functional; settings: RPMI-8226, 48 h, read-out: GI
[24] = tested on: SR; experiment: Cytotoxicity against human SR cells assessed as growth inhibition at 10 uM after 48 hrs by SRB assay; assay type: functional; settings: read-out: GI
[25] = Cytotoxicity against human HOP92 cells assessed as growth inhibition at 10 uM after 48 hrs by SRB assay; assay type: functional; settings: HOP-92, 48 h, read-out: GI
[26] = tested on: NCI-H226; experiment: Cytotoxicity against human NCI-H226 cells assessed as growth inhibition at 10 uM after 48 hrs by SRB assay; assay type: functional; settings: NCI-H226, 48 h, read-out: GI
[27] = tested on: NCI-H23; experiment: Cytotoxicity against human NCI-H23 cells assessed as growth inhibition at 10 uM after 48 hrs by SRB assay; assay type: functional; settings: NCI-H23, 48 h, read-out: GI
[28] = tested on: NCI-H322M; experiment: Cytotoxicity against human NCI-H322M cells assessed as growth inhibition at 10 uM after 48 hrs by SRB assay; assay type: functional
[29] = tested on: NCI-H460; experiment: Cytotoxicity against human NCI-H460 cells assessed as growth inhibition at 10 uM after 48 hrs by SRB assay; assay type: functional; settings: NCI-H460, 48 h, read-out: GI
[30] = Cytotoxicity against human HCC2998 cells assessed as growth inhibition at 10 uM after 48 hrs by SRB assay; assay type: functional; settings: HCC 2998, 48 h, read-out: GI
[31] = Cytotoxicity against human SW620 cells assessed as growth inhibition at 10 uM after 48 hrs by SRB assay; assay type: functional; settings: SW-620, 48 h, read-out: GI
[32] = tested on: MDA-MB-435; experiment: Cytotoxicity against human MDA-MB-435 cells assessed as growth inhibition at 10 uM after 48 hrs by SRB assay; assay type: functional; settings: MDA-MB-435, 48 h, read-out: GI
[33] = tested on: SK-MEL-5; experiment: Cytotoxicity against human SK-MEL-5 cells assessed as growth inhibition at 10 uM after 48 hrs by SRB assay; assay type: functional; settings: SK-MEL-5, 48 h, read-out: GI
[34] = Cytotoxicity against human UACC62 cells assessed as growth inhibition at 10 uM after 48 hrs by SRB assay; assay type: functional; settings: UACC-62, 48 h, read-out: GI
[35] = Cytotoxicity against human OVCAR8 cells assessed as growth inhibition at 10 uM after 48 hrs by SRB assay; assay type: functional; settings: OVCAR-8, 48 h, read-out: GI
[36] = tested on: ACHN; experiment: Cytotoxicity against human ACHN cells assessed as growth inhibition at 10 uM after 48 hrs by SRB assay; assay type: functional; settings: read-out: GI
[37] = Cytotoxicity against human PC3 cells assessed as growth inhibition at 10 uM after 48 hrs by SRB assay; assay type: functional; settings: PC-3, 48 h, read-out: GI
[38] = Cytotoxicity against human DU145 cells assessed as growth inhibition at 10 uM after 48 hrs by SRB assay; assay type: functional; settings: DU-145, 48 h, read-out: GI
[39] = tested on: MCF7; experiment: Cytotoxicity against human MCF7 cells assessed as growth inhibition at 10 uM after 48 hrs by SRB assay; assay type: functional; settings: MCF7, 48 h, read-out: GI
[40] = tested on: MDA-MB-468; experiment: Cytotoxicity against human MDA-MB-468 cells assessed as growth inhibition at 10 uM after 48 hrs by SRB assay; assay type: functional; settings: MDA-MB-468, 48 h, read-out: GI
[41] = tested on: CCRF-CEM; experiment: Cytotoxicity against human CCRF-CEM cells assessed as growth level at 10 uM after 48 hrs by SRB assay; assay type: functional

Work on C=C1CC[C@@H]2[C@](C)(COC(C)=O)[C@H](OC(C)=O)CC[C@@]2(C)[C@@H]1C/C=C1/C(=O)OC[C@H]1OC(C)=O yielded an Activity [1] of -6.05%, an Activity [2] of 14.12% and an Activity [3] of 102.98%. It also gave an Activity [4] of 75.75%, an Activity [5] of 71.9% and an Activity [6] of -37.34%. For the same compound, the Activity [7] was -39.4%, the Activity [8] was -21.85% and the Activity [9] was 87.06%. For the same compound, the Activity [10] was -74.4%, the Activity [11] was 77.72% and the Activity [12] was 33.07%. The Activity [13] was 29.71%, the Activity [14] was 66.49% and the Activity [15] was 24.99%. For the same compound, the Activity [16] was 90.57%, the Activity [17] was 16.88% and the Activity [18] was 100.18%. The Activity [19] was 7.98%, the inhibition of growth at 10 µM [20] was 11.4% and the inhibition of growth at 10 µM [21] was 20.9%. It also gave an inhibition of growth at 10 µM [22] of 88.9%, an inhibition of growth at 10 µM [23] of 85.9% and an inhibition of growth at 10 µM [24] of 94.4%. The inhibition of growth at 10 µM [25] was 28.1%, the inhibition of growth at 10 µM [26] was 76.4% and the inhibition of growth at 10 µM [27] was 19.1%. The “growth inhibition (GI)” value [28] was “inactive”, the inhibition of growth at 10 µM [29] was 1.96% and the inhibition of growth at 10 µM [30] was 32.7%. The inhibition of growth at 10 µM [31] was 21.9%, the inhibition of growth at 10 µM [32] was 66.9% and the inhibition of growth at 10 µM [33] was 43.8%. The inhibition of growth at 10 µM [34] was 70.3%, the inhibition of growth at 10 µM [35] was 72.9% and the inhibition of growth at 10 µM [36] was 80.5%. The inhibition of growth at 10 µM [37] was 11.5%, the inhibition of growth at 10 µM [38] was 49.1% and the inhibition of growth at 10 µM [39] was 77.1%. The inhibition of growth at 10 µM [40] was 92% and the Activity [41] was -11.4%.
Compound C=C1CC[C@@H]2[C@](C)(CO)[C@H](O)CC[C@@]2(C)[C@@H]1C/C=C1/C(=O)OC[C@H]1O [ANDROGRAPHOLIDE] has an Activity [1] of 98.11%, an Activity [2] of 83.28% and an Activity [3] of 104.75%. The Activity [4] was 96.27%, the Activity [5] was 107.7% and the Activity [6] was 60.01%. For the same compound, the Activity [7] was 27%, the Activity [8] was 44.29% and the Activity [9] was 97.66%. The Activity [10] was 21.84%, the Activity [11] was 99.78% and the Activity [12] was 72.62%. The Activity [13] was 69.92%, the Activity [14] was 82.87% and the Activity [15] was 83.75%. The Activity [16] was 87.79%, the Activity [17] was 97.49% and the Activity [18] was 110.33%. For the same compound, the Activity [19] was 42%, the inhibition of growth at 10 µM [20] was 76.5% and the inhibition of growth at 10 µM [22] was 34.5%. It also gave an inhibition of growth at 10 µM [23] of 16.7%, an inhibition of growth at 10 µM [24] of 20.5% and an inhibition of growth at 10 µM [26] of 8.26%. The inhibition of growth at 10 µM [27] was 2.11%, the inhibition of growth at 10 µM ([28]; read-out: GI) was 7.26% and the inhibition of growth at 10 µM [29] was 2.02%. The inhibition of growth at 10 µM [31] was 55.7%, the inhibition of growth at 10 µM [32] was 27.4% and the inhibition of growth at 10 µM [33] was 22.7%. For the same compound, the inhibition of growth at 10 µM [34] was 30.1%, the inhibition of growth at 10 µM [35] was 15.5% and the inhibition of growth at 10 µM [36] was 10.2%. For the same compound, the inhibition of growth at 10 µM [37] was 6.6%, the inhibition of growth at 10 µM [38] was 19.9% and the inhibition of growth at 10 µM [39] was 42.2%. For the same compound, the inhibition of growth at 10 µM [40] was 58% and the Activity [41] was 23.48%.
In the case of C=C1CC[C@@H]2[C@](C)(COC(C)=O)[C@H](OC(C)=O)CC[C@@]2(C)[C@@H]1CC(Sc1ccccc1)C1=CCOC1=O (mixture of isomers), the Activity [1] is reported as -3.93%, the Activity [2] is reported as -4.72% and the Activity [3] is reported as 57.74%. It also gave an Activity [4] of -18.21%, an Activity [5] of 24.5% and an Activity [6] of -34.58%. The Activity [7] was -39.29%, the Activity [8] was 0.83% and the Activity [9] was 11.62%. It also gave an Activity [10] of -83.89%, an Activity [11] of 16.83% and an Activity [12] of 101.38%. For the same compound, the Activity [13] was -1.75%, the Activity [14] was 100.23% and the Activity [15] was 10.07%. For the same compound, the Activity [16] was 86.34%, the Activity [17] was 11.37% and the Activity [18] was 54.23%. For the same compound, the Activity [19] was -61.07% and the Activity [41] was -5.24%.
